Assay results as given in patent US10703756B2, “Pyrrolo[2,3-D]pyrimidinyl, pyrrolo[2,3-B]pyrazinyl, pyrrolo[2,3-B]pyridinyl acrylamides and epoxides thereof” (Pfizer Inc., priority 2015, dated 2020).

How the values were obtained:
JAK3 enzyme [1] = molecular target: T1, JAK3 enzyme (Homo sapiens, UniProt P52333); test: JAK Caliper Enzyme Assay at 4 μM ATP; type: biochemical
T1 sequence (P52333 1-1124): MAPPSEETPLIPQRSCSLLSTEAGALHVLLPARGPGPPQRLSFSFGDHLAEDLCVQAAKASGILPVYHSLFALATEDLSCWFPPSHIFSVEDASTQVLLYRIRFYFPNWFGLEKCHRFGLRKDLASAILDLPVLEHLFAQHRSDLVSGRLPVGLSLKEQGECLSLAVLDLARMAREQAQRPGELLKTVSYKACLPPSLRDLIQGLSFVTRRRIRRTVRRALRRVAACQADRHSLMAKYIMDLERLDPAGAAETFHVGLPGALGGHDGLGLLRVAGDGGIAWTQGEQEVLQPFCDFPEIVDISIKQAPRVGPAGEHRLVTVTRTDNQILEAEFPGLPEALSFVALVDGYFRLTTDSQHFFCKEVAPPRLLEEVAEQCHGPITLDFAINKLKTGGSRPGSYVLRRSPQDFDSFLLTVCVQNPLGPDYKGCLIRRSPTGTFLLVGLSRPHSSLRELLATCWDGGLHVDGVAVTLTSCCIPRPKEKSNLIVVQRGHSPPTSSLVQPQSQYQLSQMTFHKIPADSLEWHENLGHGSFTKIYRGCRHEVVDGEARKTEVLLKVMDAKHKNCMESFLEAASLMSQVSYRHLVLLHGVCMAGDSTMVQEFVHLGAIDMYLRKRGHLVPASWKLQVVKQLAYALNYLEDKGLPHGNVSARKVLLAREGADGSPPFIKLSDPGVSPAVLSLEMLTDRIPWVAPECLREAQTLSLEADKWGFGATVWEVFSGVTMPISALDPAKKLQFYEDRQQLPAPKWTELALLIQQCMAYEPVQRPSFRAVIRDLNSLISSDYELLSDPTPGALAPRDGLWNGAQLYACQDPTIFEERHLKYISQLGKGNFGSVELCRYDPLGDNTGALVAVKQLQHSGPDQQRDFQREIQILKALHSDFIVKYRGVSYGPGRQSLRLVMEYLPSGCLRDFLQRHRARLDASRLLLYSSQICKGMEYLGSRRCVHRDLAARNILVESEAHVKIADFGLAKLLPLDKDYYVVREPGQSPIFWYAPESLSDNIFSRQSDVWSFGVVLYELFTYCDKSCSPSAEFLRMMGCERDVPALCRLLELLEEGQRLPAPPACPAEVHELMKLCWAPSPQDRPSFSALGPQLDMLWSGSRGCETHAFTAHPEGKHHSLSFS
Summary of the method: (§1)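 Read-out: microfluidic mobility-shift separation quantifying substrate peptide versus phosphopeptide. Compounds were tested as 11-point half-log dilutions, top 600 μM in DMSO before transfer. Enzyme level and reaction time were tuned for each prep so conversion stayed at 20%-30%.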

JAK3 enzyme [2] = molecular target: T1, JAK3 enzyme; test: JAK Caliper Enzyme Assay at 1 mM ATP; type: biochemical
Summary of the method: as §1

[3] = test system: IL-15 induced P-STAT5 in human PBMC; test: PBMC IL-15 Induced P-STAT5; type: cell-based; settings: human PBMC, IL-15 final 41 ng/mL; read-out: PBMC IL15_pSTAT5_IC50
Experimental: PBMC IL-15 Induced P-STAT5
Test compounds were serially diluted in DMSO, with further dilution of the compounds in RPMI 1640 medium (Invitrogen #72400) supplemented with 10 mM HEPES, pH 7.4, 1 mM sodium pyruvate, and Penicillin/Streptomycin (by adding 5 μL compound/DMSO in 120 μL Dulbecco's Phosphate-Buffered Saline (D-PBS, 1×), [DMSO]=4%, and mixing the solution by repeated pipetting, 6×). IL-15 was diluted to the concentration at 820 ng/mL in RPMI 1640 medium.
Frozen human PBMC (200-250 million cells/vial) was thawed at 37° C. The cells were transferred to 10 mL warm medium in a 50-mL conical tube, and centrifuged at 1,200 RPM at room temperature for 5 min. The supernatant was aspirated. Cells were suspended in 3 mL warm human plasma and incubated at 37° C. in a tissue culture incubator for 1.5 to 2 h. After adding 47 ml D-PBS (37° C.) to PBMC/FBS suspension, centrifuging at 1,200 RPM at room temperature for 5 min, and aspirating the supernatant, the cells were resuspended in 20 mL warm RPMI medium. Ninety μL of cell suspension were pipetted per well in a 96-well, deep-well, V-bottom plate, and the plate was incubated at 37° C. for 30 min. Five μL of compound were transferred to each well (final 0.2% DMSO), vortex gently and incubate at 37° C. for 15 min; 5 μL 4% DMSO/PBS were added to the control wells. After adding 5 μL 820 ng/mL of human IL-15 (final 41 ng/mL) to each well (5 μL PBS to the control wells), vortexing gently and incubating at 37° C. for 15 min, followed by 0.3 mL 1% paraformaldehyde/PBS (37° C.) to each well, and incubating the plate at room temperature for 15 min, the plates were centrifuged at 1,200 RPM (Beckman GS-6R or Sorvall Legend) at room temperature for 5 min, and the supernatant was aspirated using a 8-channel or 12-channel manifold. After adding 0.8 mL staining buffer per well, the plates were centrifuged at 1,200 RPM (Beckman GS-6R or Sorvall Legend) at room temperature for 5 min, and again the supernatant was aspirated using a 8-channel or 12-channel manifold. The plate was vortexed, and 0.35 mL 90% methanol/10% H2O (−20° C.) was added per well, and the plate incubated on ice for 20 min. After again adding 0.8 mL staining buffer per well, the plates were centrifuged at 1,200 RPM (Beckman GS-6R or Sorvall Legend) at room temperature for 5 min, and again the supernatant was aspirated using a 8-channel or 12-channel manifold, and then 0.8 mL Staining buffer was added per well. After once again adding 0.8 mL staining buffer per well, the plates were centrifuged at 1,200 RPM (Beckman GS-6R or Sorvall Legend) at room temperature for 5 min, and again the supernatant was aspirated using a 8-channel or 12-channel manifold. Then the plate was vortexed, and 250 μL/well of Alexa Fluor® 647 conjugated anti-STAT5 antibody ([…]; […]) was added, and the plate was incubated at 4° C. overnight in the dark. Samples of 250 μL/well were transferred to a 96-well U-bottom plate, and the FACS analysis was performed gating on total lymphocytes. Samples were analyzed using a BD Calibur™ or BD FACSCanto™ flow cytometer equipped with the BD High Throughput Sampler.

IC50 (JAK3 enzyme [1]) [nM] | IC50 (JAK3 enzyme [2]) [nM] | Structure (SMILES) | IC50 [3] [nM]
1.71 | 187 | C=CC(=O)N1C[C@@H](CO)C[C@@H](Nc2ncnc3[nH]ccc23)C1 (racemic) [Example 97, racemic-1-((3R,5S)-3-((7H-pyrrolo[2,3-d]pyrimidin-4-yl)amino)-5-(hydroxymethyl)piperidin-1-yl)prop-2-en-1-one] | 1060
0.922 | 328 | C=CC(=O)N1CCC(Oc2cnc3[nH]cc(C(=O)NC4CC(F)(F)C4)c3n2)CC1 [Example 212, 2-[(1-acryloylpiperidin-4-yl)oxy]-N-(3,3-difluorocyclobutyl)-5H-pyrrolo[2,3-b]pyrazine-7-carboxamide] | 1340
0.788 | 147 | C=CC(=O)N1CCC(Oc2cnc3[nH]cc(C(=O)NCC4CC(F)(F)C4)c3n2)CC1 [Example 197, 2-[(1-acryloylpiperidin-4-yl)oxy]-N-[(3,3-difluorocyclobutyl)methyl]-5H-pyrrolo[2,3-b]pyrazine-7-carboxamide] | 706
0.705 | 107 | C=CC(=O)N1CCC(C)(Nc2cnc3[nH]cc(C(=O)NCC4CC(F)(F)C4)c3n2)CC1 [Example 306, 2-[(1-acryloyl-4-methylpiperidin-4-yl)amino]-N-[(3,3-difluorocyclobutyl)methyl]-5H-pyrrolo[2,3-b]pyrazine-7-carboxamide] | 1570
2.16 | 182 | C=CC(=O)N1CCC(Nc2cnc3[nH]cc(C(=O)NC4CCC4)c3n2)CC1C (racemic) [Example 320, Racemic-2-[(1-acryloyl-2-methylpiperidin-4-yl)amino]-N-cyclobutyl-5H-pyrrolo[2,3-b]pyrazine-7-carboxamide] | 1250
0.519 | 57 | C=CC(=O)N1CCC(C)(Nc2cnc3[nH]cc(C(=O)NCC(C)(F)F)c3n2)CC1 [Example 296, 2-[(1-acryloyl-4-methylpiperidin-4-yl)amino]-N-(2,2-difluoropropyl)-5H-pyrrolo[2,3-b]pyrazine-7-carboxamide] | 609
2.08 | 170 | C=CC(=O)N1CCC(Nc2cnc3[nH]cc(C(=O)NCC(C)CC(F)(F)F)c3n2)CC1C (racemic) [Example 310, Racemic-2-[(1-acryloyl-2-methylpiperidin-4-yl)amino]-N-(4,4,4-trifluoro-2-methylbutyl)-5H-pyrrolo[2,3-b]pyrazine-7-carboxamide] | 1200
1.03 | 41 | C=CC(=O)N1CCC(Nc2cnc3[nH]cc(C(=O)NCc4ccc(-n5cccn5)cc4)c3n2)CC1 [Example 183, 2-[(1-acryloylpiperidin-4-yl)amino]-N-[4-(1H-pyrazol-1-yl)benzyl]-5H-pyrrolo[2,3-b]pyrazine-7-carboxamide] | 1590
34.2 | 3930 | C=CC(=O)N1CCC(Oc2cnc3[nH]cc([C@@H](C)O)c3n2)CC1 (single isomer, unassigned) [Example 119] | 9310
0.69 | 92 | C=CC(=O)N1CC[C@@H](Nc2cnc3[nH]cc(C(=O)NCC(C)(C)C)c3n2)[C@@H](OC)C1 [Example 300, 2-{[(3S,4R)-1-acryloyl-3-methoxypiperidin-4-yl]amino}-N-(2,2-dimethylpropyl)-5H-pyrrolo[2,3-b]pyrazine-7-carboxamide] | 700
0.479 | 111 | C=CC(=O)N1CCN(c2cnc3[nH]cc(C(=O)NCC4CC(F)(F)C4)c3n2)CC1 [Example 276, 2-(4-acryloylpiperazin-1-yl)-N-[(3,3-difluorocyclobutyl)methyl]-5H-pyrrolo[2,3-b]pyrazine-7-carboxamide] | 623
1.33 | 92 | C=CC(=O)N1CC[C@@H](Nc2cnc3[nH]cc(C(=O)NCC)c3n2)[C@H](OC)C1 (racemic) [Example 25, Trans-racemic-2-{[1-acryloyl-3-methoxypiperidin-4-yl]amino}-N-ethyl-5H-pyrrolo[2,3-b]pyrazine-7-carboxamide] | 1600
1.77 | 297 | C=CC(=O)N1C[C@H](Nc2cnc3[nH]cc(C(=O)NCCOC)c3n2)[C@](C)(C#N)C1 [Example 245, 2-{[(3R,4R)-1-acryloyl-4-cyano-4-methylpyrrolidin-3-yl]amino}-N-(2-methoxyethyl)-5H-pyrrolo[2,3-b]pyrazine-7-carboxamide] | > 10000
0.392 | 69 | C=CC(=O)N1CC[C@@H](Nc2cnc3[nH]cc(C(=O)NC[C@H](C)CC(F)(F)F)c3n2)[C@@H](OC)C1 [Example 323, 2-{[(3S,4R)-1-acryloyl-3-methoxypiperidin-4-yl]amino}-N-[(2R)-4,4,4-trifluoro-2-methylbutyl]-5H-pyrrolo[2,3-b]pyrazine-7-carboxamide] | 430
0.984 | 157 | C=CC(=O)N1CCN(c2cnc3[nH]cc(C(=O)NCC4CC(F)(F)C4)c3n2)C[C@@H]1CC(C)C [Example 274, 2-[(3S)-4-acryloyl-3-(2-methylpropyl)piperazin-1-yl]-N-[(3,3-difluorocyclobutyl)methyl]-5H-pyrrolo[2,3-b]pyrazine-7-carboxamide] | 507
110 | > 10000 | C=CC(=O)N1CC(Nc2cnc3[nH]cc(C(=O)NCCC(F)(F)F)c3n2)C2(CC2)C1 (stereo not shown) [Example 252, 2-[(5-acryloyl-5-azaspiro[2.4]hept-7-yl)amino]-N-(3,3,3-trifluoropropyl)-5H-pyrrolo[2,3-b]pyrazine-7-carboxamide] | –
89.2 | 8990 | C=CC(=O)N1C[C@H](CO)C[C@H](Nc2ncnc3[nH]ccc23)C1 (single isomer, unassigned) [Example 99] | –
